According to patent US20240299572A1, “NITROGEN-CONTAINING COMPOUND, CONJUGATE CONTAINING SAID COMPOUND, AND APPLICATION THEREOF” (SHANGHAI DE NOVO PHARMATECH CO., LTD., priority 2021, published 2024):

The molecules below were run against T1, TLR8 (Homo sapiens, UniProt Q9NR97) (assay: Cell activity assay of TLR8 (HEK-BLUE-hTLR8, SEAP reporter, Quanti-Blue)). Conditions: HEK-BLUE-hTLR8 cells, 24 hours.
T1 construct: host or cells: HEK293 (HEK-BLUE-hTLR8)
T1 sequence (Q9NR97 27-1041): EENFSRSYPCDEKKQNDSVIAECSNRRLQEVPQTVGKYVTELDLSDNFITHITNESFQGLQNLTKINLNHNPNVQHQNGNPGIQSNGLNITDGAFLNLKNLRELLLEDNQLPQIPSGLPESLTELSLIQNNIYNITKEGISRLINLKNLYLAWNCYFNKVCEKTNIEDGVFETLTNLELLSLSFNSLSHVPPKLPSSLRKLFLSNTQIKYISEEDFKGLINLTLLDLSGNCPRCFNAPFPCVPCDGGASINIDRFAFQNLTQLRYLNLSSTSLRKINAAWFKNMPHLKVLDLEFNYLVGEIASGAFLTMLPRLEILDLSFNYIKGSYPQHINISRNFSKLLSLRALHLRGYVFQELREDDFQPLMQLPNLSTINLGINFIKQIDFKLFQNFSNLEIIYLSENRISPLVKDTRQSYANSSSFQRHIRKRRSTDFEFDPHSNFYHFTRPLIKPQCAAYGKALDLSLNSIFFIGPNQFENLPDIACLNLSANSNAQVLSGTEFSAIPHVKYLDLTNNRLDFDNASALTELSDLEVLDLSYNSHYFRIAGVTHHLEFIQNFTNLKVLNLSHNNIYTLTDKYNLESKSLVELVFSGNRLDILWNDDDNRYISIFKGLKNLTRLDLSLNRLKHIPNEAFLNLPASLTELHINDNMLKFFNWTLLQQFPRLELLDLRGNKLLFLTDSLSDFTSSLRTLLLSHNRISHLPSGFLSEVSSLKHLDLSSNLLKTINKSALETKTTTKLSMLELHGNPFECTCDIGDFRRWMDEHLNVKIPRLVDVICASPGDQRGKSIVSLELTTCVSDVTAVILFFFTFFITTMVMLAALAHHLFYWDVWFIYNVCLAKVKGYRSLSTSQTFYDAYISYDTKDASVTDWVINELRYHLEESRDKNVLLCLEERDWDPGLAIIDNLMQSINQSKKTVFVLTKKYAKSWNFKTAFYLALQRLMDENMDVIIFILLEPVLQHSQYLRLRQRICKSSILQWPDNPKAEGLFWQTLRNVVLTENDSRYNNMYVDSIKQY
Type: cell-based
Protocol: (§1) In this experiment, TLR7 and TLR8 bioactivity assays of the compound of formula I were determined using a cellular test. This method was performed in human embryonic kidney cells (HEK293) expressing TLR family members such as TLR4, TLR7, TLR8, or TLR9. TLR agonist activates TLR, causing downstream NF-KB activation, thus activating the secreted embryonic alkaline phosphatase (SEAP) reporter gene. Quanti-Blue (InvivoGen) reagent was used to assay the SEAP activity, thus reflecting the activity of TLR7 and TLR8 agonists.
(§2) The detailed experimental method is as follows:
HEK-BLUE-hTLR7 and HEK-BLUE-hTLR8 cell lines were purchased from Invivogen company and cultured in DMEM medium containing 4.5 g/L glucose (Sigma-Aldrich) and 10% fetal bovine serum under a condition of a temperature of 37° C., a humidity of 95%, and 5% CO2.
The test concentration of the compound ranged from 0.5 nM to 15 μM, with a total of 10 concentration gradients. TLR7 or TLR8 agonists with known activity were added thereto as positive controls, and 1 μL of DMSO as a negative control.
Cell treatment was as follows: The cells were removed from the incubator and centrifuged to remove the culture medium, resuspended in a T-150 flask with 10 mL of pre-warmed PBS. 12 mL of pre-warmed culture medium was added thereto, and the cells were pipetted gently up and down, and counted under a microscope. A single cell suspension of 200,000 cells/mL was prepared immediately with culture medium, and 200 μL/well (40,000 cells/well) of the cell suspension was added to a 96-well plate. The final concentration of DMSO was 0.5%.
The compound was added thereto, and the mixture was incubated in a 5% CO2 incubator at 37° C. for 24 hours.
20 μL/well of supernatant was pipetted into 180 μL of Quanti-Blue preheated to 37° C., and the mixture was incubated at 37° C. for 1.5 hours, and the absorbance (OD value) at 650 nm was measured with a spectrophotometer. The calculation formula for the agonistic effect is as follows: • Effect %=(average OD value of the administration group-average OD value of the DMSO group)/(average OD value of the positive drug group-average OD value of the DMSO group)×100 • The concentration-effect curves were fitted with Graphpad software, and EC50 was calculated. The test results are shown in Table 4 (A represents <100 nM, B represents 100 nM to 250 nM, C represents 250 nM to […], D represents >2 μM, / represents not tested).

`CCCN(CCC)C(=O)C1=Cc2ccc(C(=O)Nc3cnc4c(c3)CNCC4)nc2N=C(N)C1` [Compound 1, 8-amino-N^6,N^6-di-n-propyl-N^2-(5,6,7,8-tetrahydro-1,6-naphthyridin-3-yl)-7H-pyrido[2,3-b]azepine-2,6-dicarboxamide] and `CCCN(CCO)C(=O)C1=Cc2ccc(C(=O)Nc3cnc4c(c3)CNCC4)cc2N=C(N)C1` [Compound 13, 2-amino-N^4-(2-hydroxyethyl)-N^4-n-propyl-N^8-(5,6,7,8-tetrahydro-1,6-naphthyridin-3-yl)-3H-benzo[b]azepine-4,8-dicarboxamide] fall in the same range of EC50: 250 to 1000 nM for the first, 250 to 1000 nM for the second.

First: CCCN(CCC)C(=O)C1=Cc2ccc(C3(C(=O)Nc4cnc5c(c4)CNCC5)CC3)cc2N=C(N)C1 [Compound 3, 2-amino-N,N-di-n-propyl-8-(1-((5,6,7,8-tetrahydro-1,6-naphthyridin-3-yl)carbamoyl)cyclopropyl)-3H-benzo[b]azepine-4-carboxamide]
Second: CCCN(CCC)C(=O)C1=Cc2c(F)cc(C3(C(=O)Nc4cnc5c(c4)CNCC5)CC3)cc2N=C(N)C1 [Compound 5, 2-amino-6-fluoro-N,N-di-n-propyl-8-(1-((5,6,7,8-tetrahydro-1,6-naphthyridin-3-yl)carbamoyl)cyclopropyl)-3H-benzo[b]azepine-4-carboxamide]
The EC50 of the first is higher: 100 to 250 nM for the first, < 100 nM for the second. The second is the more potent here.

For `CCCN(CCO)C(=O)C1=Cc2ccc(C3(C(=O)Nc4cncc(CN)c4)CC3)cc2N=C(N)C1` [Compound 12, 2-amino-8-(1-((5-(aminomethyl)pyridin-3-yl)carbamoyl)cyclopropyl)-N-(2-hydroxyethyl)-N-n-propyl-3H-benzo[b]azepine-4-carboxamide], the EC50 was 100 to 250 nM.

The molecules below were run against T2, TLR7 (Homo sapiens, UniProt Q9NYK1) (assay: Cell activity assay of TLR7 (HEK-BLUE-hTLR7, SEAP reporter, Quanti-Blue)). Conditions: HEK-BLUE-hTLR7 cells, 24 hours.
T2 construct: host or cells: HEK293 (HEK-BLUE-hTLR7)
T2 sequence (Q9NYK1 27-1049): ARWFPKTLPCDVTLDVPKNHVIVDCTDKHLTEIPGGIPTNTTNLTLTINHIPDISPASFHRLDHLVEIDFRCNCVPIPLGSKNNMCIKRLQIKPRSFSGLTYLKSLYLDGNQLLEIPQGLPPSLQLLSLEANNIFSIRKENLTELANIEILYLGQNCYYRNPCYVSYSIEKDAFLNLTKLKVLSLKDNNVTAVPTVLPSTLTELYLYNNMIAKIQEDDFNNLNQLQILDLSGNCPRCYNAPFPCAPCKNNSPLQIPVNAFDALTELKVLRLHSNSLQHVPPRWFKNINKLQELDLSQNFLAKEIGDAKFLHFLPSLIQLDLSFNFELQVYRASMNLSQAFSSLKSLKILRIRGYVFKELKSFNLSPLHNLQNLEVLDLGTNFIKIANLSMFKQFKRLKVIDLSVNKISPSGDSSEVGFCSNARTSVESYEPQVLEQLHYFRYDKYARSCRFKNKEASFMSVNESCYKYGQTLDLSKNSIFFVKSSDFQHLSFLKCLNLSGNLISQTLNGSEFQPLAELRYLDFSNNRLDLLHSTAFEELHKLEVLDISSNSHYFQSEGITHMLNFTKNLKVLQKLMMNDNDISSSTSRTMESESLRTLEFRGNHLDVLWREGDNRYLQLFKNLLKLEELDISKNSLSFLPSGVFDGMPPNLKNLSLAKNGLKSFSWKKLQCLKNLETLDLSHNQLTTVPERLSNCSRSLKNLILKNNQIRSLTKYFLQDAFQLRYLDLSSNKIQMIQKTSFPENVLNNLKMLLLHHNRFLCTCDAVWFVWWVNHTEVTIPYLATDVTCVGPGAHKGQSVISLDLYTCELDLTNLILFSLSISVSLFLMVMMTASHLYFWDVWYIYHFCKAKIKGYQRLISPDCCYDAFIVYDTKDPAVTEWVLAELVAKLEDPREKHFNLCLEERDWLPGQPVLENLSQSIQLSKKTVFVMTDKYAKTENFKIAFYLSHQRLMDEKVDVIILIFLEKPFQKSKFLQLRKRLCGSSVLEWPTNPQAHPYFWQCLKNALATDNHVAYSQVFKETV
Type: cell-based
Protocol: as §1, §2
HEK-BLUE-hTLR7 and HEK-BLUE-hTLR8 cell lines were purchased from Invivogen company and cultured in DMEM medium containing 4.5 g/L glucose (Sigma-Aldrich) and 10% fetal bovine serum under a condition of a temperature of 37° C., a humidity of 95%, and 5% CO2. […]
Cell treatment was as follows: The cells were removed from the incubator and centrifuged to remove the culture medium, resuspended in a T-150 flask with 10 mL of pre-warmed PBS. 12 mL of pre-warmed culture medium was added thereto, and the cells were pipetted gently up and down, and counted under a microscope. […]
20 μL/well of supernatant was pipetted into 180 μL of Quanti-Blue preheated to 37° C., and the mixture was incubated at 37° C. for 1.5 hours, and the absorbance (OD value) at 650 nm was measured with a spectrophotometer. […]

In the case of `CCCN(CCO)C(=O)C1=Cc2ccc(C(=O)Nc3cnc4c(c3)CNCC4)cc2N=C(N)C1` [Compound 13, 2-amino-N^4-(2-hydroxyethyl)-N^4-n-propyl-N^8-(5,6,7,8-tetrahydro-1,6-naphthyridin-3-yl)-3H-benzo[b]azepine-4,8-dicarboxamide], the EC50 is reported as > 2000 nM.
